Assay results from ChEMBL document CHEMBL3885861, “Open TG-GATES”.

Species: Rattus norvegicus
Assay: Open TG-GATES - Regimen: Daily Repeat
Type: toxicity, organism-based, Sprague-Dawley
Parameters: regimen Daily Repeat, gender Male, age 6 weeks
Details: in vivo, po, 10 mg/kg, route gavage, dose level Middle; for APTT / Bas / Eos / Fbg / Hb / Ht / Lym / MCH / MCHC / MCV / Mono / Neu / PT / Plat / RBC / Ret / WBC: tissue Blood; for KIDNEY_L / KIDNEY_R / KIDNEY_TOTAL: tissue Kidney; for LIVER: tissue Liver; for A/G / ALP / ALT / AST / BUN / CRE / Ca / Cl / DBIL / GLC / IP / K / LDH / Na / PL / RALB / TBIL / TC / TG / TP / gamma-GTP: tissue Plasma

SMILES: Nc1c2c(nc3ccccc13)CCCC2 [TACRINE]
- TERMINAL_BW (72 h, time 3 day): 217.3 g
- APTT (72 h, time 3 day): 19.9 s
- Bas (72 h, time 3 day): 0%
- Eos (72 h, time 3 day): 1%
- Fbg (72 h, time 3 day): 290 mg/dL
- Hb (72 h, time 3 day): 13.5 g/dL
- Ht (72 h, time 3 day): 38.4%
- Lym (72 h, time 3 day): 76.8%
- MCH (72 h, time 3 day): 21 pg
- MCHC (72 h, time 3 day): 35.3%
- MCV (72 h, time 3 day): 59.5 fL
- Mono (72 h, time 3 day): 2.2%
- Neu (72 h, time 3 day): 19.2%
- PT (72 h, time 3 day): 15.7 s
- Plat (72 h, time 3 day): 128 x10_4/uL
- RBC (72 h, time 3 day): 645.4 x10_4/ul
- Ret (72 h, time 3 day): 5.5%
- WBC (72 h, time 3 day): 74.8 x10_2/uL
- KIDNEY_L (72 h, time 3 day): 0.9 g
- KIDNEY_R (72 h, time 3 day): 1 g
- KIDNEY_TOTAL (72 h, time 3 day): 1.9 g
- LIVER (72 h, time 3 day): 9.2 g
- A/G (72 h, time 3 day): 1.2
- ALP (72 h, time 3 day): 1488.6 IU/L
- ALT (72 h, time 3 day): 42.6 IU/L
- AST (72 h, time 3 day): 75.4 IU/L
- BUN (72 h, time 3 day): 14.4 mg/dL
- CRE (72 h, time 3 day): 0.2 mg/dL
- Ca (72 h, time 3 day): 10.6 mg/dL
- Cl (72 h, time 3 day): 108 meq/L
- DBIL (72 h, time 3 day): 0 mg/dL
- GLC (72 h, time 3 day): 186.2 mg/dL
- IP (72 h, time 3 day): 7.1 mg/dL
- K (72 h, time 3 day): 4.4 meq/L
- LDH (72 h, time 3 day): 253 IU/L
- Na (72 h, time 3 day): 142 meq/L
- PL (72 h, time 3 day): 153.6 mg/dL
- RALB (72 h, time 3 day): 3.1 g/dL
- TBIL (72 h, time 3 day): 0.014 mg/dL
- TC (72 h, time 3 day): 78.6 mg/dL
- TG (72 h, time 3 day): 94.4 mg/dL
- TP (72 h, time 3 day): 5.7 g/dL
- gamma-GTP (72 h, time 3 day): 1 IU/L
- TERMINAL_BW ([…], time 7 day): 245.3 g
- TERMINAL_BW ([…], time 14 day): 297.7 g
- TERMINAL_BW ([…], time 28 day): 336.4 g
- APTT ([…], time 7 day): 22.4 s
- Bas ([…], time 7 day): 0%
- Eos ([…], time 7 day): 0.6%
- Fbg ([…], time 7 day): 307.4 mg/dL
- Hb ([…], time 7 day): 14 g/dL
- Ht ([…], time 7 day): 40.1%
- Lym ([…], time 7 day): 77.4%
- MCH ([…], time 7 day): 20.9 pg
- MCHC ([…], time 7 day): 34.8%
- MCV ([…], time 7 day): 60 fL
- Mono ([…], time 7 day): 2.2%
- Neu ([…], time 7 day): 18.8%
- PT ([…], time 7 day): 15.8 s
- Plat ([…], time 7 day): 117.3 x10_4/uL
- RBC ([…], time 7 day): 668 x10_4/ul
- Ret ([…], time 7 day): 5.4%
- WBC ([…], time 7 day): 103.5 x10_2/uL
- APTT ([…], time 14 day): 23.1 s
- Bas ([…], time 14 day): 0%
- Eos ([…], time 14 day): 0.8%
- Fbg ([…], time 14 day): 317.6 mg/dL
- Hb ([…], time 14 day): 14.7 g/dL
- Ht ([…], time 14 day): 41.8%
- Lym ([…], time 14 day): 84.4%
- MCH ([…], time 14 day): 20.8 pg
- MCHC ([…], time 14 day): 35.1%
- MCV ([…], time 14 day): 59.4 fL
- Mono ([…], time 14 day): 1.4%
- Neu ([…], time 14 day): 12.6%
- PT ([…], time 14 day): 15.5 s
- Plat ([…], time 14 day): 117.2 x10_4/uL
- RBC ([…], time 14 day): 704.4 x10_4/ul
- Ret ([…], time 14 day): 4.3%
- WBC ([…], time 14 day): 95.3 x10_2/uL
- APTT ([…], time 28 day): 22.6 s
- Bas ([…], time 28 day): 0%
- Eos ([…], time 28 day): 1%
- Fbg ([…], time 28 day): 301.8 mg/dL
- Hb ([…], time 28 day): 15.1 g/dL
- Ht ([…], time 28 day): 41.2%
- Lym ([…], time 28 day): 79.6%
- MCH ([…], time 28 day): 20.1 pg
- MCHC ([…], time 28 day): 36.7%
- MCV ([…], time 28 day): 54.7 fL
- Mono ([…], time 28 day): 2%
- Neu ([…], time 28 day): 16.6%
- PT ([…], time 28 day): 16.4 s
- Plat ([…], time 28 day): 93.2 x10_4/uL
- RBC ([…], time 28 day): 752 x10_4/ul
- Ret ([…], time 28 day): 2.9%
- WBC ([…], time 28 day): 95.4 x10_2/uL
- KIDNEY_L ([…], time 7 day): 1 g
- KIDNEY_R ([…], time 7 day): 1.1 g
- KIDNEY_TOTAL ([…], time 7 day): 2.1 g
- KIDNEY_L ([…], time 14 day): 1.1 g
- KIDNEY_R ([…], time 14 day): 1.2 g
- KIDNEY_TOTAL ([…], time 14 day): 2.3 g
- KIDNEY_L ([…], time 28 day): 1.2 g
- KIDNEY_R ([…], time 28 day): 1.2 g
- KIDNEY_TOTAL ([…], time 28 day): 2.4 g
- LIVER ([…], time 7 day): 10.5 g
- LIVER ([…], time 14 day): 12.6 g
- LIVER ([…], time 28 day): 12.9 g
- A/G ([…], time 7 day): 1.2
- ALP ([…], time 7 day): 1555.6 IU/L
- ALT ([…], time 7 day): 42.2 IU/L
- AST ([…], time 7 day): 82.8 IU/L
- BUN ([…], time 7 day): 15.8 mg/dL
- CRE ([…], time 7 day): 0.2 mg/dL
- Ca ([…], time 7 day): 10.6 mg/dL
- Cl ([…], time 7 day): 108.2 meq/L
- DBIL ([…], time 7 day): 0.004 mg/dL
- GLC ([…], time 7 day): 180 mg/dL
- IP ([…], time 7 day): 6.8 mg/dL
- K ([…], time 7 day): 4.1 meq/L
- LDH ([…], time 7 day): 235.6 IU/L
- Na ([…], time 7 day): 141 meq/L
- PL ([…], time 7 day): 145.2 mg/dL
- RALB ([…], time 7 day): 3 g/dL
- TBIL ([…], time 7 day): 0.024 mg/dL
- TC ([…], time 7 day): 72.2 mg/dL
- TG ([…], time 7 day): 120.8 mg/dL
- TP ([…], time 7 day): 5.5 g/dL
- gamma-GTP ([…], time 7 day): 1 IU/L
- A/G ([…], time 14 day): 1.2
- ALP ([…], time 14 day): 1291.4 IU/L
- ALT ([…], time 14 day): 36.8 IU/L
- AST ([…], time 14 day): 67.8 IU/L
- BUN ([…], time 14 day): 18.4 mg/dL
- CRE ([…], time 14 day): 0.2 mg/dL
- Ca ([…], time 14 day): 10.8 mg/dL
- Cl ([…], time 14 day): 108 meq/L
- DBIL ([…], time 14 day): 0 mg/dL
- GLC ([…], time 14 day): 185.2 mg/dL
- IP ([…], time 14 day): 6.4 mg/dL
- K ([…], time 14 day): 4 meq/L
- LDH ([…], time 14 day): 168 IU/L
- Na ([…], time 14 day): 142.6 meq/L
- PL ([…], time 14 day): 152.6 mg/dL
- RALB ([…], time 14 day): 3.2 g/dL
- TBIL ([…], time 14 day): 0.004 mg/dL
- TC ([…], time 14 day): 75 mg/dL
- TG ([…], time 14 day): 136.2 mg/dL
- TP ([…], time 14 day): 5.8 g/dL
- gamma-GTP ([…], time 14 day): 1 IU/L
- A/G ([…], time 28 day): 1.1
- ALP ([…], time 28 day): 1046.8 IU/L
- ALT ([…], time 28 day): 37 IU/L
- AST ([…], time 28 day): 63.4 IU/L
- BUN ([…], time 28 day): 18.8 mg/dL
- CRE ([…], time 28 day): 0.2 mg/dL
- Ca ([…], time 28 day): 10.5 mg/dL
- Cl ([…], time 28 day): 107.4 meq/L
- DBIL ([…], time 28 day): 0 mg/dL
- GLC ([…], time 28 day): 188.8 mg/dL
- IP ([…], time 28 day): 6.7 mg/dL
- K ([…], time 28 day): 4.1 meq/L
- LDH ([…], time 28 day): 116 IU/L
- Na ([…], time 28 day): 141.8 meq/L
- PL ([…], time 28 day): 142 mg/dL
- RALB ([…], time 28 day): 3.1 g/dL
- TBIL ([…], time 28 day): 0.006 mg/dL
- TC ([…], time 28 day): 70.4 mg/dL
- TG ([…], time 28 day): 121 mg/dL
- TP ([…], time 28 day): 5.9 g/dL
- gamma-GTP ([…], time 28 day): 1.2 IU/L
